SMILES strings stand for the structures.

Experimental findings from US20250026761A1, “DIAZABICYCLOOCTANE DERIVATIVES USEFUL AS MATRIX METALLOPROTEINASE INHIBITORS” (VASA THERAPEUTICS SPÓLKA Z OGRANICZONA ODPOWIEDZIALNOSCIA, priority 2021, published 2025) are described below.

The target in one assay is T1, MMP2 (Homo sapiens, UniProt P08253).
T1 construct: purchased Enzo Life Sciences, Inc. BML-AK408
Put plainly: MMP-2 colorimetric inhibition assay (Enzo kit). The settings on record: colorimetric thiopeptide substrate, absorbance 415 nm; read-out: MMP2 IC50 class. It counts as biochemical. As for the experimental part: (§1) The inhibitory activities of the compounds of the invention were assessed in 96-well microplate format using MMP1, MMP2, MMP9 and MMP13 colorimetric assay kits and TACE fluorometric assay kit from Enzo Life Sciences, Inc. The inhibitory effect of the compounds of the invention on ADAM10 activity were evaluated in 96-well microplate format using fluorometric assay from AnaSpec, Inc.
The MMP-2 Colorimetric Drug Discovery Kit (catalog #BML-AK408) is a complete assay system designed to screen MMP-2 inhibitors using a thiopeptide as a chromogenic substrate (Ac-PLG-[2-mercapto-4-methylpentanoyl]-LG-OC2H5). The MMP cleavage site peptide bond is replaced by a thioester bond in the thiopeptide. Hydrolysis of this bond by an MMP produces a sulfhydryl group, which reacts with DTNB [5,5′-dithiobis(2-nitrobenzoic acid), Ellman's reagent] to form 2-nitro-5-thiobenzoic acid, that can be detected spectrophotometrically.
(§2) The inhibitory activities of the compounds of the invention against MMP1, MMP2, MMP9 and MMP13 were tested according to the manufacturer's assay protocols and the absorbance at 415 nm was monitored using the Tecan Infinite® 200 Pro F Nano^+ microplate reader.
(§3) The normalized values were analyzed using GraphPadPrism 9 for Windows (GraphPad Software, San Diego, CA, USA) software by plotting inhibition curves and determining the IC50 values.
(§4) The calculated IC50 values were divided into the following classes: • A: <50 nM; B: 50-1000 nM; C: >1000-10,000 nM; D: >10,000 nM

The next assay has as its target T2, MMP9 (Homo sapiens, UniProt P14780).
T2 construct: purchased Enzo Life Sciences, Inc. BML-AK410
Put plainly: MMP-9 colorimetric inhibition assay (Enzo kit). It counts as biochemical. The settings on record: colorimetric thiopeptide substrate, absorbance 415 nm; read-out: MMP9 IC50 class. On the procedure: as §1
The MMP-9 Colorimetric Drug Discovery Kit (catalog #BML-AK410) is a complete assay system designed to screen inhibitors of matrix metalloproteinase-9 using a thiopeptide as a chromogenic substrate (Ac-PLG-[2-mercapto-4-methylpentanoyl]-LG-OC2H5). The MMP cleavage site peptide bond is replaced by a thioester bond in the thiopeptide. Hydrolysis of this bond by an MMP produces a sulfhydryl group, which reacts with DTNB [5,5′-dithiobis(2-nitrobenzoic acid), Ellman's reagent] to form 2-nitro-5-thiobenzoic acid, that can be detected spectrophotometrically.
as §2, §3, §4

T1 sequence (P08253 110-452 limits assumed): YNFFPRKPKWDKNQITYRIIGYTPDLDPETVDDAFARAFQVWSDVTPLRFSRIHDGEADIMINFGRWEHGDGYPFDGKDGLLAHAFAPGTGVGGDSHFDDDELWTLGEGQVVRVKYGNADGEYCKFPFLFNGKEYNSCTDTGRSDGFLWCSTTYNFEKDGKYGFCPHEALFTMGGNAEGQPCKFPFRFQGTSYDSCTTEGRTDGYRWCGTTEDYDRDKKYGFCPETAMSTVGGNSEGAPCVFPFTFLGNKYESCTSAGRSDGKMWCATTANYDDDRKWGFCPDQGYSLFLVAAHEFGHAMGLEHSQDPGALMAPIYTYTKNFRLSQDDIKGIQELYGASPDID
T2 sequence (P14780 94-707): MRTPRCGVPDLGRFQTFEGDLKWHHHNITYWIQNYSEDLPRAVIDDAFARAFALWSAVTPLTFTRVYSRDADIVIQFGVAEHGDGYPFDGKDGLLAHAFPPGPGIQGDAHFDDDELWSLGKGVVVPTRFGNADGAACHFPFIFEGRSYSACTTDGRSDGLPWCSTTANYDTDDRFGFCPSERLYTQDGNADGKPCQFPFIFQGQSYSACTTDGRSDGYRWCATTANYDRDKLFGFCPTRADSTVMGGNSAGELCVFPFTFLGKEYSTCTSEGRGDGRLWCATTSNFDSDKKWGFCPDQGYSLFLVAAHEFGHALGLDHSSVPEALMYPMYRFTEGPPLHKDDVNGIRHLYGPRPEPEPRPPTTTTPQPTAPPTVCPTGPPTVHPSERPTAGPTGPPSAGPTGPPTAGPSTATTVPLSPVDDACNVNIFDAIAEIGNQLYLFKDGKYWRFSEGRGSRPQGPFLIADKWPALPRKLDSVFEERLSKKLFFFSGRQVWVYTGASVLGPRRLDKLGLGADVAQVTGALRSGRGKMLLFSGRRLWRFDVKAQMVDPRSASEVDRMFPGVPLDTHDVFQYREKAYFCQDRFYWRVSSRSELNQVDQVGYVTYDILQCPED

One may read the IC50 as the concentration at which inhibition is half-maximal. Regarding `O=C(NO)C12CCC(CNC1)N2S(=O)(=O)c1cc(F)c(Oc2ccc(Cl)cc2)c(F)c1` (centres unmarked) [Example 32, 8-((4-(4-chlorophenoxy)-3,5-difluorophenyl)sulfonyl)-N-hydroxy-3,8-diazabicyclo[3.2.1]octane-1-carboxamide], the IC50 on MMP2 lay within 0.05 to 1 µM; at MMP9 it was 1 to 10 µM. The like results for `COCCOC(=O)N1C[C@@H]2CC[C@](C(=O)NO)(C1)N2S(=O)(=O)c1ccc(Oc2ccc(F)cc2)c(F)c1` [Example 31, 2-methoxyethyl (1R,5S)-8-((3-fluoro-4-(4-fluorophenoxy)phenyl)sulfonyl)-1-(hydroxycarbamoyl)-3,8-diazabicyclo[3.2.1]octane-3-carboxylate] were, in that order, below 0.05 µM and 0.05 to 1 µM.

In the case of `O=C(c1ccncc1)N1CC2CCC(C(=O)NO)(C1)N2S(=O)(=O)c1cc(F)c(Oc2ccc(Cl)cc2)c(F)c1` (centres unmarked) [Example 3, 8-((4-(4-chlorophenoxy)-3,5-difluorophenyl)sulfonyl)-N-hydroxy-3-isonicotinoyl-3,8-diazabicyclo[3.2.1]octane-1-carboxamide], the results for the half-maximal inhibitory concentration (IC50) on MMP2 and at MMP9 were 0.05 to 1 µM and 1 to 10 µM, respectively. For `O=C(N1CCOCC1)N1CC2CCC(C(=O)NO)(C1)N2S(=O)(=O)c1cc(F)c(Oc2ccc(Cl)cc2)c(F)c1` (centres unmarked) [Example 24, 8-((4-(4-chlorophenoxy)-3,5-difluorophenyl)sulfonyl)-N-hydroxy-3-(morpholine-4-carbonyl)-3,8-diazabicyclo[3.2.1]octane-1-carboxamide], in that order: 0.05 to 1 µM and 0.05 to 1 µM. In the case of `COCCOC(=O)N1CC2CCC(C(=O)NO)(C1)N2S(=O)(=O)c1cc(F)c(Oc2ccc(Cl)cc2)c(F)c1` (centres unmarked) [Example 1, 2-methoxyethyl 8-((4-(4-chlorophenoxy)-3,5-difluorophenyl)sulfonyl)-1-(hydroxycarbamoyl)-3,8-diazabicyclo[3.2.1]octane-3-carboxylate], at MMP2, the IC50 fell in the range of 0.05 to 1 µM. With `O=C(N1CCCCC1)N1CC2CCC(C(=O)NO)(C1)N2S(=O)(=O)c1cc(F)c(Oc2ccc(Cl)cc2)c(F)c1` (centres unmarked) [Example 6, 8-((4-(4-chlorophenoxy)-3,5-difluorophenyl)sulfonyl)-N-hydroxy-3-(piperidine-1-carbonyl)-3,8-diazabicyclo[3.2.1]octane-1-carboxamide], the concentration for half-maximal inhibition (IC50) at MMP2 and at MMP9 was 0.05 to 1 µM each time.

Regarding `O=C(CCN1CCOCC1)N1CC2CCC(C(=O)NO)(C1)N2S(=O)(=O)c1cc(F)c(Oc2ccc(Cl)cc2)c(F)c1` (centres unmarked) [Example 25, 8-((4-(4-chlorophenoxy)-3,5-difluorophenyl)sulfonyl)-N-hydroxy-3-(3-morpholinopropanoyl)-3,8-diazabicyclo[3.2.1]octane-1-carboxamide], the half-maximal inhibitory concentration (IC50) on MMP2 and on MMP9 was 0.05 to 1 µM throughout. Turning to `COCCOC(=O)N1C[C@H]2CC[C@@](C(=O)NO)(C1)N2S(=O)(=O)c1ccc(Oc2ccc(F)cc2)c(F)c1` [Example 30, 2-methoxyethyl (1S,5R)-8-((3-fluoro-4-(4-fluorophenoxy)phenyl)sulfonyl)-1-(hydroxycarbamoyl)-3,8-diazabicyclo[3.2.1]octane-3-carboxylate], the 50% inhibitory concentration (IC50) on MMP2 and on MMP9 was 0.05 to 1 µM in each case. In the case of `O=C(Cc1ccncc1)N1CC2CCC(C(=O)NO)(C1)N2S(=O)(=O)c1cc(F)c(Oc2ccc(Cl)cc2)c(F)c1` (centres unmarked) [Example 23, 8-((4-(4-chlorophenoxy)-3,5-difluorophenyl)sulfonyl)-N-hydroxy-3-(2-(pyridin-4-yl)acetyl)-3,8-diazabicyclo[3.2.1]octane-1-carboxamide], the 50% inhibitory concentration (IC50) at MMP2 and at MMP9 was 0.05 to 1 µM throughout.
